Assay results taken from patent US9433211B2, “Antimicrobial agent” (TAIYO CORPORATION, priority 2012, dated 2016).
In brackets after ≈: the same amount, converted by molar mass.

Experiments:
[1] = system: black mold (A. niger, JCM10254); test: Verification test of antimicrobial effects (minimum inhibitory concentration) on black mold; format: cell-based; conditions: for Minimum inhibitory concentration / MIC: A. niger, cultured at 30° C. aerobic four days, visual turbidity, 156-2500 ppm tested; for MIC: Aspergillus niger, JCM10254, 96 h; for antimicrobial activities, comparison in words: against black mold (A. niger), from the results in Table 1
Procedure: (§1) 0.5 ml of a previously sterilized culture medium (trade name “Potato dextrose liquid culture medium”, made by Nissui Pharmaceutical Co., Ltd. was placed into a 96-well deep type microplate, then the propanediol mono-β-hydroxycarboxylic acid esters (the present invention products 1 to 10), the glycerin mono β-hydroxydecanoic acid ester (comparative product 1), the β-hydroxydecanoic acid potassium (comparative product 2) prepared in the above descriptions of (1) to (5) as well as 1,2-octanediol (comparative product 3), 1,2-propanediol (comparative product 4) and 1,3-propanediol (comparative product 5) known as an auxiliary antiseptic agent for external preparations for skin were respectively added, and the culture medium was diluted in a step-wise manner so that the final concentration in the medium was 156 ppm, 312 ppm, 625 ppm, 1250 ppm, and 2500 ppm to prepare sample solutions.
(§2) To these sample solutions, 0.1 ml of each culture solution of blackmold (A. niger, JCM10254) and yeast (C. albicans, NBRC1594) at approximately 1×10^6 CFU/ml were added, and the solutions were cultured at 30° C. under an aerobic condition for four days. Antimicrobial effects were visually determined. The solutions were compared with test areas in which the above microorganisms had not been added. Test areas in which no turbidity due to growth of the microorganism was observed were determined to have antimicrobial effects, and the lowest concentration necessary for inhibiting the growth of the microorganism (hereinafter referred to as “minimum inhibitory concentration”) was measured.

[2] = system: yeast (C. albicans, NBRC1594); test: Verification test of antimicrobial effects (minimum inhibitory concentration) on yeast; format: cell-based; conditions: for Minimum inhibitory concentration / MIC: C. albicans, cultured at 30° C. aerobic four days, visual turbidity, 156-2500 ppm tested; for MIC: 96 h; for antimicrobial activities, comparison in words: against yeast (C. albicans), from the results in Table 1
Procedure: as §1, §2

[3] = Compounding property in cosmetic, pharmaceutical and industrial formulations; format: physicochemical; conditions: 0.30 weight %
Procedure: Glycerin, DPG, POE (60) hydrogenated castor oil, and 1,3-propanediol mono-β-hydroxydecanoic acid ester were mixed and dissolved by being heated to 70° C. (the resulting mixture was referred to as a mixture A). On the other hand, citrate acid Na, citric acid, glycine, alanine, hyaluronic acid Na, and water were individually mixed at room temperature (the resulting mixture was referred to as a mixture B). Then, the mixture A and the mixture B were combined and mixed at 50° C., and thus a lotion was obtained.
Cetanol, squalane, stearic acid, γ-tocopherol, BHT, polyethylene glycol monostearate (25EO), glycerin stearic acid monoester, and 1,3-propanediol mono-β-hydroxydecanoic acid ester were individually mixed and dissolved by being heated to 70° C. (the resulting mixture was referred to as a mixture A). On the other hand, 1,3-butanediol, carboxy vinyl polymer, and potassium hydroxide were individually mixed at room temperature (the resulting mixture was referred to as a mixture B). Then, the mixture A and the mixture B were combined and heated to 60° C. and were vigorously stirred and emulsified while being gradually added in small quantities to the purified water, and thus a milky lotion was obtained.
With regard to the compounding example 6, pantothenic acid, hyaluronic acid, thioxolone, hydrocortisone acetate, tocopherol, and minoxidil were mixed individually and dissolved by being heated to 70° C. (the resulting mixture was referred to as a mixture A). On the other hand, glycerin, polyoxyethylene glycol monoether, ethanol, and the present invention product 8 (1,3-propanediol mono-β-hydroxydecanoic acid ester) were mixed at room temperature (the resulting mixture was referred to as a mixture B). Then, the mixture A and the mixture B were combined and heated to 70° C. and were vigorously stirred while being added gradually in small quantities to water, and thus a hair growth liquid was obtained.
In preparing the compounding example 11, polyoxyethylene nonylphenylether, polyoxyethylene sorbitan monosterate, BHT, and fragrant material were mixed individually and dissolved by being heated to 80° C. (the resulting mixture was referred to as a mixture A). On the other hand, gellan gum, propylene glycol, the present invention product 8 (1,3-propanediol mono-β-hydroxydecanoic acid ester), and water were mixed at 80° C. (the resulting mixture was referred to as a mixture B). Then, the mixture B was gradually added in small quantities to the mixture A, heated to 80° C., and were vigorously stirred, and thus a transparent aqueous aromatic agent for vehicles was obtained.

[4] = hair growth liquid (compounding example 6)
[5] = transparent aqueous aromatic agent for vehicles (compounding example 11)

Structure (SMILES) | Minimum inhibitory concentration [1] [ppm] | Minimum inhibitory concentration [2] [ppm] | MIC [1] [mg/L] | MIC [2] [mg/L] | antimicrobial activities, comparison in words [2] | also measured
CCCCCCCC(O)CC(=O)OCC(O)CO (stereo not drawn) [Comparative product 1, glycerin mono β-hydroxydecanoic acid ester, reference compound] | 2500 | >2500 | – | – | – | –
CCCCCCCC(O)CC(=O)O.[K] (stereo not drawn) [Comparative product 2, β-hydroxydecanoic acid potassium, reference compound] | – | – | 1250 | 2500 | – | –
CCCCCCC(O)CO (stereo not shown) [Comparative product 3, 1,2-octanediol, reference compound] | – | – | 2500 (≈ 17100 µM) | 2500 (≈ 17100 µM) | – | –
CC(O)CO (stereo not shown) [Comparative product 4, 1,2-propanediol, reference compound] | >2500 | >2500 | – | – | lower antimicrobial activities | antimicrobial activities, comparison in words [1]: lower antimicrobial activities
OCCCO [Comparative product 5, 1,3-propanediol, reference compound] | >2500 | >2500 | – | – | lower antimicrobial activities | antimicrobial activities, comparison in words [1]: lower antimicrobial activities
CCCCCCCCCC(O)CC(=O)OCC(C)O (stereo not drawn) [Present invention product 1, 1,2-propanediol mono-β-hydroxydodecanoic acid ester] | – | – | 312 (≈ 1140 µM) | 312 (≈ 1140 µM) | – | –
CCCCCCCCC(O)CC(=O)OCC(C)O (stereo not drawn) [Present invention product 2, 1,2-propanediol mono-β-hydroxyundecanoic acid ester] | – | – | 312 (≈ 1200 µM) | 312 (≈ 1200 µM) | – | –
CCCCCCCC(O)CC(=O)OCC(C)O (stereo not drawn) [Present invention product 3, 1,2-propanediol mono-β-hydroxydecanoic acid ester] | – | – | 312 (≈ 1270 µM) | 625 (≈ 2540 µM) | very stronger antimicrobial activities | antimicrobial activities, comparison in words [1]: very stronger antimicrobial activities
CCCCCCC(O)CC(=O)OCC(C)O (stereo not drawn) [Present invention product 4, 1,2-propanediol mono-β-hydroxynonanoic acid ester] | 1250 | 1250 | – | – | – | –
CCCCCC(O)CC(=O)OCC(C)O (stereo not drawn) [Present invention product 5, 1,2-propanediol mono-β-hydroxyoctanoic acid ester] | 2500 | >2500 | – | – | lower than 1,2-octanediol | –
CCCCCCCCCC(O)CC(=O)OCCCO (stereo not drawn) [Present invention product 6, 1,3-propanediol mono-β-hydroxydodecanoic acid ester] | – | – | 156 (≈ 569 µM) | 312 (≈ 1140 µM) | – | –
CCCCCCCCC(O)CC(=O)OCCCO (stereo not drawn) [Present invention product 7, 1,3-propanediol mono-β-hydroxyundecanoic acid ester] | – | – | 312 (≈ 1200 µM) | 312 (≈ 1200 µM) | – | –
CCCCCCCC(O)CC(=O)OCCCO (stereo not drawn) [Present invention product 8, 1,3-propanediol mono-β-hydroxydecanoic acid ester] | – | – | 312 (≈ 1270 µM) | 625 (≈ 2540 µM) | very stronger antimicrobial activities | compounding property: mixing with other components [3, 4]: easily mixed with other components; compounding property: turbidity or precipitation in the obtained product [3, 4]: not found; compounding property: mixing with other components ([3]; lotion): easily mixed with other components; compounding property: turbidity or precipitation in the obtained product ([3]; lotion): not found; compounding property: mixing with other components [3, 5]: easily mixed with other components; compounding property: turbidity or precipitation in the obtained product [3, 5]: not found; antimicrobial activities, comparison in words [1]: very stronger antimicrobial activities
CCCCCCC(O)CC(=O)OCCCO (stereo not drawn) [Present invention product 9, 1,3-propanediol mono-β-hydroxynonanoic acid ester] | 1250 | 1250 | – | – | – | –
CCCCCC(O)CC(=O)OCCCO (stereo not drawn) [Present invention product 10, 1,3-propanediol mono-β-hydroxyoctanoic acid ester] | 2500 | >2500 | – | – | lower than 1,2-octanediol | –
